Test results taken from patent publication US20160009693A1, “HERBICIDAL COMPOUNDS” (SYNGENTA LIMITED, priority 2013, published 2016).

How the values were obtained:
Format in all cases: in vivo
Conditions in all cases: applied at 1000 g/h, evaluated after 13 days
[1] = tested on: Ipomoea hederacea (IPOHE); experiment: Herbicidal glasshouse test, pre-emergence, IPOHE
Setaria faberi (SETFA) [2] = experiment: Herbicidal glasshouse test, post-emergence, SETFA
Method in brief: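 This post-emergence glasshouse herbicide test used potted Setaria faberi. Plants were cultivated for 8 days under controlled conditions (24/16° C. day/night, 14 hours light, 65% humidity) and then treated with an aqueous spray made from an acetone/water (50:50) solution containing 0.5% Tween 20. After 13 days of further growth with twice-daily watering, damage was rated on a five point scale (5=80-100%; 1=0-19%).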

[3] = tested on: Echinochloa crus-galli (ECHCG); experiment: Herbicidal glasshouse test, pre-emergence, ECHCG
Method in brief: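 In this pre-emergence glasshouse test, ECHCG seeds sown in pots of standard soil were sprayed one day after sowing with the test material in acetone/water (50:50) containing 0.5% Tween 20. Plants were kept at 24/16° C., 14 hours light, 65% humidity, and watered twice daily. Percentage damage was rated after 13 days on a 1–5 scale.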

Setaria faberi (SETFA) [4] = experiment: Herbicidal glasshouse test, pre-emergence, SETFA
[5] = tested on: Echinochloa crus-galli (ECHCG); experiment: Herbicidal glasshouse test, post-emergence, ECHCG
Method in brief: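 In this post-emergence glasshouse test, barnyard grass (ECHCG) was cultivated for 8 days under controlled conditions (24/16° C. day/night, 14 hours light, 65% humidity). It was then sprayed with an aqueous solution of the technical compound in acetone / water (50:50) with 0.5% Tween 20. Plants were kept under the same conditions and watered twice daily. After 13 days, percentage damage was rated on a five point scale (5=80-100%; 1=0-19%).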

[6] = tested on: Amaranthus retoflexus (AMARE); experiment: Herbicidal glasshouse test, post-emergence, AMARE
Method in brief: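 This post-emergence glasshouse test used AMARE plants raised in standard soil for 8 days under controlled conditions (24/16° C. day/night, 14 hours light, 65% humidity). Foliage was sprayed with formulated compound in acetone/water (50:50) containing 0.5% Tween 20. Plants were then watered twice daily, and after 13 days percentage damage was rated on a five point scale.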

[7] = tested on: Alopecurus myosuroides (ALOMY); experiment: Herbicidal glasshouse test, post-emergence, ALOMY
Solanum nigrum (SOLNI) [8] = experiment: Herbicidal glasshouse test, post-emergence, SOLNI
Solanum nigrum (SOLNI) [9] = experiment: Herbicidal glasshouse test, pre-emergence, SOLNI
Method in brief: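 This pre-emergence glasshouse herbicide test used Solanum nigrum sown in standard soil. One day after sowing, pots were sprayed with the compound in acetone/water (50:50) with 0.5% Tween 20. They were then grown at 24/16° C., with 14 hours light and 65% humidity, and watered twice daily. Percentage damage was scored after 13 days on a five point scale, where 5=80-100% and 1=0-19%.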

[10] = tested on: Ipomoea hederacea (IPOHE); experiment: Herbicidal glasshouse test, post-emergence, IPOHE
[11] = tested on: Amaranthus retoflexus (AMARE); experiment: Herbicidal glasshouse test, pre-emergence, AMARE
Method in brief: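 This pre-emergence glasshouse herbicide test used Amaranthus retoflexus sown in standard soil. After one day of cultivation, an aqueous spray made from the technical ingredient in 50:50 acetone/water with 0.5% Tween 20 was applied. Pots stayed at 24/16° C., 14 hours light, 65% humidity, with twice-daily watering. Damage was rated on a five point scale (1=0-19% up to 5=80-100%).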

[12] = tested on: Alopecurus myosuroides (ALOMY); experiment: Herbicidal glasshouse test, pre-emergence, ALOMY

Row | Compound | PRE Application IPOHE, percentage damage (five point scale) [1] | POST Application SETFA, percentage damage (five point scale) (Setaria faberi (SETFA) [2]) | PRE Application ECHCG, percentage damage (five point scale) [3] | PRE Application SETFA, percentage damage (five point scale) (Setaria faberi (SETFA) [4]) | POST Application ECHCG, percentage damage (five point scale) [5] | POST Application AMARE, percentage damage (five point scale) [6] | POST Application ALOMY, percentage damage (five point scale) [7] | POST Application SOLNI, percentage damage (five point scale) (Solanum nigrum (SOLNI) [8]) | PRE Application SOLNI, percentage damage (five point scale) (Solanum nigrum (SOLNI) [9]) | POST Application IPOHE, percentage damage (five point scale) [10] | PRE Application AMARE, percentage damage (five point scale) [11] | PRE Application ALOMY, percentage damage (five point scale) [12]
1 | Cn1nnnc1NC(=O)c1nn(C)c(=O)n(-c2cc(C(F)(F)F)cc(C(F)(F)F)c2)c1=O [Compound 1.032] | 4 (4=60-79%) | 4 (4=60-79%) | 5 (5=80-100%) | 5 (5=80-100%) | 5 (5=80-100%) | 5 (5=80-100%) | 5 (5=80-100%) | 5 (5=80-100%) | 5 (5=80-100%) | 5 (5=80-100%) | 5 (5=80-100%) | 5 (5=80-100%)
2 | Cn1ncnc1NC(=O)c1nn(C)c(=O)n(-c2ccccc2)c1=O [Compound 5.001] | 4 (4=60-79%) | 5 (5=80-100%) | 1 (1=0-19%) | 1 (1=0-19%) | 5 (5=80-100%) | 5 (5=80-100%) | 5 (5=80-100%) | 5 (5=80-100%) | 5 (5=80-100%) | 5 (5=80-100%) | 5 (5=80-100%) | 1 (1=0-19%)
3 | CC(Cl)c1ccc(-n2c(=O)c(C(=O)Nc3nnnn3C)nn(C)c2=O)cc1 (stereo not drawn) [Compound 1.010] | 5 (5=80-100%) | 5 (5=80-100%) | 5 (5=80-100%) | 5 (5=80-100%) | 5 (5=80-100%) | 5 (5=80-100%) | 5 (5=80-100%) | 5 (5=80-100%) | 5 (5=80-100%) | 5 (5=80-100%) | 4 (4=60-79%) | 5 (5=80-100%)
4 | CC#CCn1c(=O)c(C(=O)Nc2nnnn2C)nn(C)c1=O [Compound 1.092] | 5 (5=80-100%) | 5 (5=80-100%) | 5 (5=80-100%) | 5 (5=80-100%) | 5 (5=80-100%) | 5 (5=80-100%) | 4 (4=60-79%) | 5 (5=80-100%) | 5 (5=80-100%) | 5 (5=80-100%) | 5 (5=80-100%) | 4 (4=60-79%)
5 | CC#CCn1nc(C(=O)Nc2nnnn2C)c(=O)n(-c2cccc(F)c2)c1=O [Compound 1.012] | 5 (5=80-100%) | 5 (5=80-100%) | 3 (3=40-59%) | 1 (1=0-19%) | 5 (5=80-100%) | 5 (5=80-100%) | 5 (5=80-100%) | 5 (5=80-100%) | 5 (5=80-100%) | 4 (4=60-79%) | 4 (4=60-79%) | 4 (4=60-79%)
6 | Cn1nnnc1NC(=O)c1nn(C)c(=O)n(Cc2ccc(OC(F)F)cc2)c1=O [Compound 1.066] | 5 (5=80-100%) | 1 (1=0-19%) | 5 (5=80-100%) | 1 (1=0-19%) | 5 (5=80-100%) | 5 (5=80-100%) | 5 (5=80-100%) | 5 (5=80-100%) | 5 (5=80-100%) | 5 (5=80-100%) | 5 (5=80-100%) | 5 (5=80-100%)
7 | COc1cc(Cn2c(=O)c(C(=O)Nc3nnnn3C)nn(C)c2=O)cc(Cl)n1 [Compound 1.070] | 5 (5=80-100%) | 2 (2=20-39%) | 5 (5=80-100%) | 1 (1=0-19%) | 5 (5=80-100%) | 5 (5=80-100%) | 5 (5=80-100%) | 5 (5=80-100%) | 5 (5=80-100%) | 5 (5=80-100%) | 5 (5=80-100%) | 5 (5=80-100%)
